Test results from the kinase profiling compilation of Christmann-Franck et al. (2016).

Legend:
Assay in all cases: KINOMEscan competition binding
Conditions in all cases: compound 10.0 µM
[1] = biological target: CDK2 (human) (UniProt P24941)
[2] = biological target: RIPK2 (human) (UniProt O43353)
[3] = system: FLT3 (human), P36888 [K663Q]
[4] = biological target: CLK1 (human) (UniProt P49759)
[5] = biological target: LATS2 (human) (UniProt Q9NRM7)
[6] = biological target: PRKD3 (human) (UniProt O94806)
[7] = biological target: CDK8 (human) (UniProt P49336)
Chain of CDK8 (human) (P49336 whole entry, looked up): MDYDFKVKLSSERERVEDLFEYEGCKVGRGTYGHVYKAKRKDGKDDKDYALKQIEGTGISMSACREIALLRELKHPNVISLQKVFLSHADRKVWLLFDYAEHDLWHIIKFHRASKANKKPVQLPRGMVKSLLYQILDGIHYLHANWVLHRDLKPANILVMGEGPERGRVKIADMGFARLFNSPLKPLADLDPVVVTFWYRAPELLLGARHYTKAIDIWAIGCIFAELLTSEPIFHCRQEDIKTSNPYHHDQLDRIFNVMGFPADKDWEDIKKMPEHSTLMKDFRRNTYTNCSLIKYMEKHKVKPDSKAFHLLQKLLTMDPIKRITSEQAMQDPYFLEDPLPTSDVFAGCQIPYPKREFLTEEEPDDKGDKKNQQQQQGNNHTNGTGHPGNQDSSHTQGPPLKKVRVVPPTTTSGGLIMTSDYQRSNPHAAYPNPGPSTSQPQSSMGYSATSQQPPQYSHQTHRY

[8] = biological target: AKT1 (human) (UniProt P31749)
Chain of AKT1 (human) (P31749 whole entry, looked up): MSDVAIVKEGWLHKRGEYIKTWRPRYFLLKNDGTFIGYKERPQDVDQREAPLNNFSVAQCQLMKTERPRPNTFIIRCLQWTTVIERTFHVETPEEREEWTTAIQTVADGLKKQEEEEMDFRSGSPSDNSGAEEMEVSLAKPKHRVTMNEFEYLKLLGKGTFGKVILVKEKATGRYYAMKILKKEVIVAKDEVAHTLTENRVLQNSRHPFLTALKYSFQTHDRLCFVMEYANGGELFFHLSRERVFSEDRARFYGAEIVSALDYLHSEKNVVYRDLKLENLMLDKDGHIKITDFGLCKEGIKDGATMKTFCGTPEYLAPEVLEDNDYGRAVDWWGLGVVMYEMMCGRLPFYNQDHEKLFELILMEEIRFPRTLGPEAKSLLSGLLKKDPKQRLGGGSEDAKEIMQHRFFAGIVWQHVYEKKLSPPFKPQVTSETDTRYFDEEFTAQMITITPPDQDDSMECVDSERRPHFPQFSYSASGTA

[9] = system: PIK3CA (human), P42336 [M1043I]
[10] = biological target: PLK4 (human) (UniProt O00444)
Chain of PLK4 (human) (O00444 whole entry, looked up): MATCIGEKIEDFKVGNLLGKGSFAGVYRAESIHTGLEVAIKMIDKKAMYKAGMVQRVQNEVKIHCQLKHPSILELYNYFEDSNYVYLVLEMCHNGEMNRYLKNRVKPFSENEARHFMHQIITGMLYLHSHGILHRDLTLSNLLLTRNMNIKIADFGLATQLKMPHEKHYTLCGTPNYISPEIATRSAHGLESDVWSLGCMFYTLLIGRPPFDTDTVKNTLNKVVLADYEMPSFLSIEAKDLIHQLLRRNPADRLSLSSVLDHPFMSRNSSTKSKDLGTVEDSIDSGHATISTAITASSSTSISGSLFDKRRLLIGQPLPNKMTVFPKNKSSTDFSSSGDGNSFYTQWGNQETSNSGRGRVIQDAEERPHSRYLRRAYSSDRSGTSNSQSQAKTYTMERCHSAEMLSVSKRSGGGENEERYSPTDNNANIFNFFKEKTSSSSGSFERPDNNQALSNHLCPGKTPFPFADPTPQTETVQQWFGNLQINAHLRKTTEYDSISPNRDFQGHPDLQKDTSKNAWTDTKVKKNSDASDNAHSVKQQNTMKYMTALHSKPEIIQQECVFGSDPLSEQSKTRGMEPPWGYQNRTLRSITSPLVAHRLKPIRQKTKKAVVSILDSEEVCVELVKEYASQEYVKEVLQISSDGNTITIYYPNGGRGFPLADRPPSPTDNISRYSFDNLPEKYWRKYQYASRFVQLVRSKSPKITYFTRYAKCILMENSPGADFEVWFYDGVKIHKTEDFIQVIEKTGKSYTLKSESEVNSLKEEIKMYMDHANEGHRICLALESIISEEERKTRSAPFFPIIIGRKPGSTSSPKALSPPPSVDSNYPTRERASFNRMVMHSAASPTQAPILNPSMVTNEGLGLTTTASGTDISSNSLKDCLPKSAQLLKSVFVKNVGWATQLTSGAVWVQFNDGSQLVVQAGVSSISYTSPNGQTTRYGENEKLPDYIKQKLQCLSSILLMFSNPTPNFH

[11] = biological target: LATS1 (human) (UniProt O95835)
[12] = biological target: PAK4 (human) (UniProt O96013)
Chain of PAK4 (human) (O96013 whole entry, looked up): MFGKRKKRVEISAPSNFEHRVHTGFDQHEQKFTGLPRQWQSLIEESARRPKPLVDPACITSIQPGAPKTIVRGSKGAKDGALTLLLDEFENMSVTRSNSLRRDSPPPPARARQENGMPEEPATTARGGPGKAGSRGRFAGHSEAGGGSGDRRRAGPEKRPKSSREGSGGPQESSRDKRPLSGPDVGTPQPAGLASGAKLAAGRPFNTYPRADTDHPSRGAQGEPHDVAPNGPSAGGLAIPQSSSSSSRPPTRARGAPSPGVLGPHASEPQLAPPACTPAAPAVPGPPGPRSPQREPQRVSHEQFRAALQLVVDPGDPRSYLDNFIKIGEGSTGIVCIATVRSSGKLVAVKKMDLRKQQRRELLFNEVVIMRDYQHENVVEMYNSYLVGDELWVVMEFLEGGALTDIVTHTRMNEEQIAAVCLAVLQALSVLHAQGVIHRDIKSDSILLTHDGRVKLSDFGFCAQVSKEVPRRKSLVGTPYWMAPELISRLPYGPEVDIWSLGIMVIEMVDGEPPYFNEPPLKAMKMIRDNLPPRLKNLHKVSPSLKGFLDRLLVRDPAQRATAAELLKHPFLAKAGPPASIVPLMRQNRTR

[13] = biological target: SBK1 (human) (UniProt Q52WX2)
Chain of SBK1 (human) (Q52WX2 whole entry, looked up): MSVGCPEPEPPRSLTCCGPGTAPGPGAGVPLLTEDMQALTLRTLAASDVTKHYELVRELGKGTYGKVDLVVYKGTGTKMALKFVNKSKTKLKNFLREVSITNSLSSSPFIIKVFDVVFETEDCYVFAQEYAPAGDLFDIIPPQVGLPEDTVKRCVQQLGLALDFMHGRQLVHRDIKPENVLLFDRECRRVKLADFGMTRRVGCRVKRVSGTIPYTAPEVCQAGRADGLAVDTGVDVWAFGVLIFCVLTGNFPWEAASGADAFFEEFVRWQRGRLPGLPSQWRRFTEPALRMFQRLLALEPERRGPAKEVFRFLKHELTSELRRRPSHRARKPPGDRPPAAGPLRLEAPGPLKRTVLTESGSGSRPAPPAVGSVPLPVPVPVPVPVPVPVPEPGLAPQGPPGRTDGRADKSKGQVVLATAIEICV

[14] = biological target: ICK (human) (UniProt Q9UPZ9)
[15] = biological target: MYLK3 (human) (UniProt Q32MK0)
[16] = biological target: MERTK (human) (UniProt Q12866)
[17] = biological target: ACVR1 (human) (UniProt Q04771)
Chain of ACVR1 (human) (Q04771 whole entry, looked up): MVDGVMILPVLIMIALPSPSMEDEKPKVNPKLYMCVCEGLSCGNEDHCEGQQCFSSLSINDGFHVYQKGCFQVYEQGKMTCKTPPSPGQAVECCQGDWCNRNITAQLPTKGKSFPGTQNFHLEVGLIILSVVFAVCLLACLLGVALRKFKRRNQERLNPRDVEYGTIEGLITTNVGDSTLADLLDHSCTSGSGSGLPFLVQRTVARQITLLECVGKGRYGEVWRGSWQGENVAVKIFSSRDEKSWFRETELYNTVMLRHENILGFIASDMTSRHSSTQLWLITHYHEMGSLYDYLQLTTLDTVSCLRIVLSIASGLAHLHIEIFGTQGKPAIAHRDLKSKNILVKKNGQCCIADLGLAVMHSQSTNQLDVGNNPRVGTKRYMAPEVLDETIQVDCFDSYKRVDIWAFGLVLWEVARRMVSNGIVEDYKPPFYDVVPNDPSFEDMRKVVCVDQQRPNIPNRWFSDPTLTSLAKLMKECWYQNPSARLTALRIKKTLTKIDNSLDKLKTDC

[18] = biological target: MAP3K4 (human) (UniProt Q9Y6R4)
[19] = biological target: PRKACA (human) (UniProt P17612)
[20] = biological target: MET (human) (UniProt P08581)
[21] = biological target: CAMK4 (human) (UniProt Q16566)
[22] = system: ABL1 (human), P00519 [E255K]
[23] = biological target: MYLK4 (human) (UniProt Q86YV6)
Chain of MYLK4 (human) (Q86YV6 whole entry, looked up): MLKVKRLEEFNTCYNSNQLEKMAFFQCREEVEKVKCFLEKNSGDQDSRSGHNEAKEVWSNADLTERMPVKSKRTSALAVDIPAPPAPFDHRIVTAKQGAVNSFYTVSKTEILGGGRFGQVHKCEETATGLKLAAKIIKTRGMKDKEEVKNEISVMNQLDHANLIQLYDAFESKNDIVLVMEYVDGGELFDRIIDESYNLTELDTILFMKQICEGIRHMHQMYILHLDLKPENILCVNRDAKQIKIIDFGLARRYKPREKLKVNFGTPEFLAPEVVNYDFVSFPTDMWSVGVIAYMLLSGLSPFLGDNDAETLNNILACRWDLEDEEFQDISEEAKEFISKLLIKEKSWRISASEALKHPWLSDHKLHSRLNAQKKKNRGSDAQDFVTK

[24] = biological target: SIK3 (human) (UniProt Q9Y2K2)
[25] = biological target: GRK1 (human) (UniProt Q15835)
[26] = biological target: PIK3CG (human) (UniProt P48736)
[27] = biological target: CIT (human) (UniProt O14578)
[28] = biological target: NTRK1 (human) (UniProt P04629)
[29] = biological target: AKT2 (human) (UniProt P31751)
Chain of AKT2 (human) (P31751 whole entry, looked up): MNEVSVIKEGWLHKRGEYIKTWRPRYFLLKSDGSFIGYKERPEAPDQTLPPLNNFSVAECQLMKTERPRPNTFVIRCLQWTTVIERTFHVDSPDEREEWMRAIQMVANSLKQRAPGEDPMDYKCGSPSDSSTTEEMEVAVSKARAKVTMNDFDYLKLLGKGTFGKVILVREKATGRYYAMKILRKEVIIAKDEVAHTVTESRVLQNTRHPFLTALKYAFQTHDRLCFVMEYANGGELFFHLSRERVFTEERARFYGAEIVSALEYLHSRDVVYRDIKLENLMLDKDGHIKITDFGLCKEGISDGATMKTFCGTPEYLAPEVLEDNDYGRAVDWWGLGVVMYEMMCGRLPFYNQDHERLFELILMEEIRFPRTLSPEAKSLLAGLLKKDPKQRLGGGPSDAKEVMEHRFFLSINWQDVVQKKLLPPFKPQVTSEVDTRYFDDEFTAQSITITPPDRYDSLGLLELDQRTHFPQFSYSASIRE

[30] = biological target: MARK1 (human) (UniProt Q9P0L2)
[31] = biological target: PHKG2 (human) (UniProt P15735)
[32] = biological target: MAP3K3 (human) (UniProt Q99759)
Chain of MAP3K3 (human) (Q99759 whole entry, looked up): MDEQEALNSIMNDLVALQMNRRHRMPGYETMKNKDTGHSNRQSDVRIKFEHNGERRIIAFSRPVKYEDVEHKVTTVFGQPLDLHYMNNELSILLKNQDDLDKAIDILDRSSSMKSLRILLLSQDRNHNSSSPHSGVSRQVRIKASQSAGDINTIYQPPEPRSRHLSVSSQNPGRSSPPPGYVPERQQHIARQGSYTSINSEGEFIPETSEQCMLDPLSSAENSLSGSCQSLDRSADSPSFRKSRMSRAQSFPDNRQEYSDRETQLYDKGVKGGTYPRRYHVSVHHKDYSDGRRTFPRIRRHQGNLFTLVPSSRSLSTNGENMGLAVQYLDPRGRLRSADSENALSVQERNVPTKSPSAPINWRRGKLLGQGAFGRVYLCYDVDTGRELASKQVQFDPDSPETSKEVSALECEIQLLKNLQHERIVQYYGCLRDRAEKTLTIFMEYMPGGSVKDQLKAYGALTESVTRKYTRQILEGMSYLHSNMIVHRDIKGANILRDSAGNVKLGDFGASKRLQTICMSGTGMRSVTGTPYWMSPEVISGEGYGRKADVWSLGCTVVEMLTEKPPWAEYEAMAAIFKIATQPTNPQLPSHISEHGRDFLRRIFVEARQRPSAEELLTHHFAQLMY

[33] = biological target: SGK110 (human) (UniProt P0C264)
[34] = biological target: MAPK9 (human) (UniProt P45984)
[35] = biological target: FGFR3 (human) (UniProt P22607)
[36] = biological target: PRKCE (human) (UniProt Q02156)
[37] = system: KIT (human), P10721 [D816V]
[38] = biological target: MAP4K4 (human) (UniProt O95819)
[39] = biological target: LCK (human) (UniProt P06239)
[40] = system: ABL1 (human), P00519 [M351T]
[41] = biological target: MAPK12 (human) (UniProt P53778)
[42] = biological target: RIOK1 (human) (UniProt Q9BRS2)

O=C1Nc2cc(Br)ccc2/C1=C1/Nc2ccccc2/C1=N\O
kinase still bound, per cent of control [1]: 14%
kinase still bound, per cent of control [2]: 69%
kinase still bound, per cent of control [3]: 0%
kinase still bound, per cent of control [4]: 34%
kinase still bound, per cent of control [5]: 60%
kinase still bound, per cent of control [6]: 70%
kinase still bound, per cent of control [7]: 100%
kinase still bound, per cent of control [8]: 100%
kinase still bound, per cent of control [9]: 100%
kinase still bound, per cent of control [10]: 0%
kinase still bound, per cent of control [11]: 70%
kinase still bound, per cent of control [12]: 21%
kinase still bound, per cent of control [13]: 61%
kinase still bound, per cent of control [14]: 0.1%
kinase still bound, per cent of control [15]: 0.4%
kinase still bound, per cent of control [16]: 0.4%
kinase still bound, per cent of control [17]: 32%
kinase still bound, per cent of control [18]: 85%
kinase still bound, per cent of control [19]: 100%
kinase still bound, per cent of control [20]: 86%
kinase still bound, per cent of control [21]: 100%
kinase still bound, per cent of control [22]: 11%
kinase still bound, per cent of control [23]: 7.3%
kinase still bound, per cent of control [24]: 24%
kinase still bound, per cent of control [25]: 60%
kinase still bound, per cent of control [26]: 82%
kinase still bound, per cent of control [27]: 29%
kinase still bound, per cent of control [28]: 19%
kinase still bound, per cent of control [29]: 100%
kinase still bound, per cent of control [30]: 38%
kinase still bound, per cent of control [31]: 5.6%
kinase still bound, per cent of control [32]: 38%
kinase still bound, per cent of control [33]: 100%
kinase still bound, per cent of control [34]: 63%
kinase still bound, per cent of control [35]: 12%
kinase still bound, per cent of control [36]: 90%
kinase still bound, per cent of control [37]: 2.3%
kinase still bound, per cent of control [38]: 8%
kinase still bound, per cent of control [39]: 4.8%
kinase still bound, per cent of control [40]: 2.2%
kinase still bound, per cent of control [41]: 55%
kinase still bound, per cent of control [42]: 5.1%
